Values quoted from earlier work in paper PMC6311693 (ACS Central Science, 2018).

Conditions: 8 mg/kg; musculoskeletal system, increases in creatine phosphokinase

For CCCCCCCCCC(=O)N[C@@H](Cc1c[nH]c2ccccc12)C(=O)N[C@H](CC(N)=O)C(=O)N[C@@H](CC(=O)O)C(=O)N[C@@H]1C(=O)NCC(=O)N[C@@H](CCCN)C(=O)N[C@@H](CC(=O)O)C(=O)N[C@H](C)C(=O)N[C@@H](CC(=O)O)C(=O)NCC(=O)N[C@H](CO)C(=O)N[C@@H]([C@H](C)CC(=O)O)C(=O)N[C@@H](CC(=O)c2ccccc2N)C(=O)O[C@@H]1C [daptomycin], the “adverse effects in phase 1 clinical trials” value is listed as “unacceptable adverse effects”.
